Reference: patent US20250333377A1, “SOLID FORM OF NAPHTHYLAMINE MITOPHAGY INDUCER, AND PREPARATION METHOD THEREFOR, PHARMACEUTICAL COMPOSITION THEREOF AND USE THEREOF” (HANGZHOU PHECDAMED CO., LTD., priority 2023, published 2025)

Legend:
[1] = Crystal form conversion (heat treatment, suspension competition test, DSC analysis); type: physicochemical; settings: for Crystal form conversion / relative stability in suspension competition test: equal amounts mixed, RT/50, magnetic stirring ~1000 rpm, about 20 hours
From the text: The mutual conversion relationship among the A, B, C, D crystal forms of the sodium salt is further studied in this embodiment by heat treatment under nitrogen protection and suspension competition test.
However, the methods of heating, suspension pulping as well as grinding can not study the thermodynamic conversion relationship between crystal form A and crystal form D. In order to further study the thermodynamic conversion relationship of crystal form A and crystal form D, analyzed from the DSC pattern, the DSC of crystal form A is shown in FIG. 2, and the DSC of crystal form D is shown in FIG. 11, the melting point of crystal form A is higher than that of crystal form D, whereas the enthalpy of melting of crystal form A is much lower than that of crystal form D. It may be judged from the thermodynamic stability relationship table that if TA>TD, ΔHf, A>ΔHf, D, crystal form A and D is a univariate relationship, crystal form A is stable, if TA>TD, ΔHf, A<ΔHf, D, crystal forms A and D are reciprocal relationships, if the temperature is higher than the transcrystallization temperature, crystal form A is stable, and if the temperature is lower than the transcrystallization temperature, crystal form D is stable.

[2] = Hygroscopicity (vapor sorption analyser, DVS); type: physicochemical; settings: for Percentage weight gain by moisture absorption: 90% RH, 25° C.; for Hygroscopicity (in words): according to Table 7, 90% RH
Description: Single crystalline sample of compound TJ01-013 is tested using a Waters vaporsorption analyser. Taking a dry weighing tray, and laying a single sample of crystal form flat in the weighing tray, and the volume of the loaded samples is about ⅓ to ⅔ of that of the weighing tray. Instrument parameters are set as follows: temperature: 25° C.; equilibrium: dm/dt=0.01%/min (minimum time: 10 minutes, and maximum time: 180 minutes); drying: drying 120 minutes under 0% RH; RH (%) testing gradient: 10%; RH (%) test gradient range: 0%-90%-0%.

| SMILES | Percentage weight gain by moisture absorption [2] [%] | Hygroscopicity (in words) [2] | further results |
| --- | --- | --- | --- |
| O=C(O)C[S+]([O-])c1cc(NS(=O)(=O)c2ccc(Br)cc2)c2ccccc2c1O (stereo not drawn) [Embodiment 1] | – | – | Crystal form conversion / relative stability in suspension competition test ([1]; listed as crystal form A): more stable than crystal form B, C |
| O=C(O)C[S+]([O-])c1cc(NS(=O)(=O)c2ccc(Br)cc2)c2ccccc2c1O (stereo not drawn) [Embodiment 2] | – | – | Crystal form conversion / relative stability in suspension competition test ([1]; listed as crystal form B): able to be converted into crystal form A, D; Crystal form conversion on heat treatment ([1]; heating to 106° C. and then cooling to room temperature, nitrogen protection): converted into crystal form C |
| O=C(O)C[S+]([O-])c1cc(NS(=O)(=O)c2ccc(Br)cc2)c2ccccc2c1O (stereo not drawn) [Embodiment 3] | – | – | Crystal form conversion / relative stability in suspension competition test ([1]; listed as crystal form C): able to be converted into crystal form A, D |
| O=C(O)C[S+]([O-])c1cc(NS(=O)(=O)c2ccc(Br)cc2)c2ccccc2c1O (stereo not drawn) [Embodiment 5] | 2.655 | slightly hygroscopic | – |
| O=C(O)C[S+]([O-])c1cc(NS(=O)(=O)c2ccc(Br)cc2)c2ccccc2c1O (stereo not drawn) [Embodiment 6] | 7.275 | – | – |
| O=C(O)C[S+]([O-])c1cc(NS(=O)(=O)c2ccc(Br)cc2)c2ccccc2c1O (stereo not drawn) [Embodiment 7] | 2.313 | slightly hygroscopic | – |
| O=C(O)C[S+]([O-])c1cc(NS(=O)(=O)c2ccc(Br)cc2)c2ccccc2c1O (stereo not drawn) [Embodiment 9] | 0.7884 | slightly hygroscopic | – |
| O=C(O)C[S+]([O-])c1cc(NS(=O)(=O)c2ccc(Br)cc2)c2ccccc2c1O (stereo not drawn) [Embodiment 10] | 0.2033 | slightly hygroscopic | – |
| O=C(O)C[S+]([O-])c1cc(NS(=O)(=O)c2ccc(Br)cc2)c2ccccc2c1O (stereo not drawn) [Embodiment 11] | 1.897 | slightly hygroscopic | – |
| O=C(O)C[S+]([O-])c1cc(NS(=O)(=O)c2ccc(Br)cc2)c2ccccc2c1O (stereo not drawn) [Embodiment 12] | 6.026 | – | – |
| O=C(O)C[S+]([O-])c1cc(NS(=O)(=O)c2ccc(Br)cc2)c2ccccc2c1O (stereo not drawn) [Embodiment 13] | 0.439 | slightly hygroscopic | – |
